Experiment [1] relates to lysate kinases (HEK293/HCT116 lysate mixture). In words: Kinome selectivity profiling by kinobead competition. It is filed as binding. The settings on record: 10 μM compound. As for the experimental part: Prior to conducting cellular studies with PAIRs, we first performed comprehensive kinome selectivity profiling using a chemical proteomic method (FIG. 4A).^41-43 To do this, we measured the ability of 1, 2, 5, 6, PAIR, and KIRA9 to compete with lysate kinases for binding to a mixture of bead-immobilized, nonselective kinase inhibitors (kinobeads). Each compound (10 μM) was incubated with a standard kinobead matrix and a HEK293/HCT116 lysate mixture and competed kinases were quantified using mass spectrometry.
Kinome Profiling and Selectivity Kinobead Enrichment Protocol
HEK293 and HCT116 cells were plated on 15 cm plates until 90% confluent and lysed into 750 μL modified RIPA buffer (50 mM Tris, 150 mM NaCl, 10 mM NaF, 1% NP40, 0.25% sodium deoxycholate, 5% glycerol, pH 7.8) containing protease inhibitor (Pierce Protease Inhibitor Tablets and 1 mM PMSF) and phosphatase inhibitor (Phosphatase inhibitor cocktail 2 and 3, Sigma Aldrich). Protein content was determined via Bradford assay. […]
Tryptic peptides were separated using a nanoAcquity UPLC instrument with 10 cm fused silica capillary columns made in house and packed with 5 μm 120 Å reverse-phase C18 beads (ReproSil-Pur®, Maisch). […] MS data was analyzed using a Thermo Orbitrap Fusion Tribrid. Raw files were analyzed using MaxQuant (Andromeda) Version 1.6.0.16. […]

Experiment [2] concerns INS-1 cells expressing IRE1α under Dox control. In words: Apoptosis in IRE1α-overexpressing INS-1 cells (cleaved caspase 3 immunoblot, Annexin V staining). It is filed as cell-based, rat. The following applies: 20 μM, 5 ng/mL Dox. As to the method:
Western Blotting and Antibodies
For protein analysis, cells were lysed into modified RIPA buffer (50 mM Tris, 150 mM NaCl, 10 mM NaF, 1% NP40 (v/v), 0.25% sodium deoxycholate (w/v), 5% glycerol (v/v), pH 7.8) containing protease inhibitor (Pierce Protease Inhibitor Tablets and 1 mM PMSF) and phosphatase inhibitor (Phosphatase inhibitor cocktail 2 and 3, Sigma Aldrich) prior to gel loading. Western blots were performed using Any kD™ Mini-PROTEAN® TGX™ Precast protein gels (BioRad). Gels were ran using Tris-Glycine running buffer (25 mM Tris pH 8.6, 192 mM glycine, 0.1% SDS (w/v)) at 180 V. Gels were transferred to nitrocellulose paper using the TransBlot Turbo System (BioRad) at 25 V, 2.5 A for 15 minutes. Nitrocellulose blots were blocked for 30 minutes at room temperature with Odyssey blocking buffer (Li-Cor). Primary antibodies were diluted into blocking buffer and incubated over night at 4° C. Blots were washed 2× with TBST (20 mM Tris pH 7.5, 150 mM NaCl, 0.1% Tween-20) and incubated with near-infrared-dye-conjugated secondary antibodies (Li-Cor) for 1 hour at room temperature. Blots were imaged using a Li-Cor Odyssey IR Imager and quantitated using ImageStudio. The following primary antibodies were used in this study: rabbit anti-IRE1α mAb #14C10 (Cell Signaling, no. 3294), mouse anti-FLAG (DYKDDDDK (SEQ ID NO:24) mAb (Sigma Aldrich, no. F3165), rabbit anti-spliced XBP1 (Cell Signaling, no. 12782), rabbit anti-caspase 3 (Cell Signaling, no. 9662), rabbit anti-cleaved caspase 3 (Cell Signaling, no. 9661), mouse anti-proinsulin (Santa Cruz Biotechnology, no. sc-9168), and rabbit anti-GAPDH (Santa Cruz Biotechnology, no. sc-25778).
For assaying apoptosis by Annexin V staining, cells were plated in 12-well plates overnight. Cells were then treated with various reagents for indicated time periods. On the day of flow cytometry analysis, cells were trypsinized and washed in PBS and resuspended in Annexin V binding buffer with Annexin-V FITC (BD Pharmingen™). Flow cytometry was performed on a Becton Dickinson LSRII flow cytometer.

As for `O=S(=O)(CC(F)(F)F)Nc1ccc(Oc2ncccc2-c2ccnc(N[C@H]3CCCNC3)n2)c2ccccc12` (stereo in doubt) [PAIR1, 2,2,2-trifluoro-N-(4-(3-(2-(piperidin-3-ylamino)pyrimidin-4-yl)pyridin-2-yloxy)naphthalen-1-yl)ethanesulfonamide], the kinome selectivity result in experiment [1] is “high selectivity for IRE1α”. Further, in experiment [2], the “Annexin-V positivity (mitochondrial apoptosis assay)” value was “significant cytoprotective efficacy” and the “generation of cleaved caspase 3” value is listed as “markedly reduced”.

In the case of `O=S(=O)(CCC(F)(F)F)Nc1ccc(Oc2ncccc2-c2ccnc(NC3CCCNC3)n2)c2ccccc12` (stereo not drawn) [KIRA9, 3,3,3-trifluoro-N-(4-(3-(2-(piperidin-3-ylamino)pyrimidin-4-yl)pyridin-2-yloxy)naphthalen-1-yl)propane-1-sulfonamide], in experiment [1], the kinome selectivity result is “equivalent potency and selectivity”. Moreover, in experiment [2], the “Annexin-V positivity (mitochondrial apoptosis assay)” value is listed as “significant cytoprotective efficacy” and the “generation of cleaved caspase 3” value is reported as “markedly reduced”.

Source of the values: patent publication US11884649B2, “IRE1α inhibitors and uses thereof” (The Regents of the University of California, priority 2020, dated 2024).
